Measurements from patent US10889563B2, “Deoxyuridine triphosphatase inhibitors” (University of Southern California, priority 2013, dated 2021).

How the values were obtained:
[1] = system: HCT116 cells; assay: Colony formation assay, HCT116; type: cell-based; conditions: HCT116, increasing concentrations of compound plus fixed 0.5 μmol/L FUdR, vs single agents
Method: Colony forming assay showing the ability of colon (SW620, HCT 116), non-small cell lung (A549, H460, H1299 and H358) and breast (MCF7) cancer cells to survive and proliferate following transient 24 hour exposure to single agent PCI 1013, FUdR and combinations. Specifically, cells were seeded at densities between 50 and 100 cells/well in 24-well plates. Twenty-four hours later, cells were treated with increasing concentrations of PCI 10213, a fixed dose of FUdR and combinations of these. After 24 hours, drug was removed, cells were rinsed and allowed to outgrow for 10-14 days. At the conclusion of the outgrowth, cells were fixed in 60% ice cold methanol and stained with 0.1% crystal violet, scanned and counted. Data is presented as percentage of untreated controls (mean±SD). Fraction affected and combination indexes were calculated according to the method of Chou and Talalay where <1 is indicative of a synergistic drug interaction. […]
In colorectal cancer cells, concentrations of PCI 10213 ranging from 3.1 μmol/L to 50 μmol/L were combined with 0.5 μmol/L FUdR in HCT116 cells and 1 μmol/L FUdR in SW620 cells.

[2] = system: HCT-8 colorectal cell line model; assay: Colony formation assay, HCT-8; type: cell-based; conditions: HCT-8, increasing concentrations of compound plus fixed 1 μmol/L FUdR, vs single agents
Method: (§1) Colony forming assay showing the ability of colon (SW620, HCT 116), non-small cell lung (A549, H460, H1299 and H358) and breast (MCF7) cancer cells to survive and proliferate following transient 24 hour exposure to single agent PCI 1013, FUdR and combinations. Specifically, cells were seeded at densities between 50 and 100 cells/well in 24-well plates. Twenty-four hours later, cells were treated with increasing concentrations of PCI 10213, a fixed dose of FUdR and combinations of these. After 24 hours, drug was removed, cells were rinsed and allowed to outgrow for 10-14 days. At the conclusion of the outgrowth, cells were fixed in 60% ice cold methanol and stained with 0.1% crystal violet, scanned and counted. Data is presented as percentage of untreated controls (mean±SD). Fraction affected and combination indexes were calculated according to the method of Chou and Talalay where <1 is indicative of a synergistic drug interaction.
Colony forming assays were subsequently performed to evaluate the effectiveness of additional PCI compounds alone and in combination with FUdR at reducing cancer cell viability in the HCT-8 colorectal cell line model. […] Subsequently, increasing concentrations of PCI compounds were combined with a fixed dose of 1 μmol/L FUdR to evaluate the combined drug effect.

[3] = system: colorectal (HCT116), breast (MCF-7) and non-small cell lung (H1299, A549, H358 and H460) cell line models; assay: Colony formation assay, all cell lines evaluated; type: cell-based; conditions: all cell lines examined (cell lines not named at b507)
Method: as §1
Subsequently, increasing concentrations of PCI 10213 were combined with a fixed dose of FUdR to evaluate the combined drug effect. In NSCLC cells, concentrations of PCI 10213 ranging from 3.1 μmol/L to 25 μmol/L were combined with 1 μmol/L FUdR. […] The effectiveness of this combination was pronounced in A549 and H460 cells where 12.5 and 25 μmol/L PCI 10213 combined with 1 μmol/L FUdR reduced cell viability by >95% compared to vehicle-treated controls.

[4] = system: A549 cells; assay: MTS growth inhibition assay, A549; conditions: A549, 72 hours, 100 μmol/L single agent
Method: (§2) The Cell Titer^96 AQueous MTS assay (Promega) was carried out according to the manufacturers guidelines. […] The combination effect was determined by the combination index (CI) method utilizing Calcusyn software (Biosoft, Ferguson, Mo.). Fraction affected (FA) was calculated from the percent growth inhibition: FA=(100−% growth inhibition)/100. CI values <1, synergism; 1-1.2, additive and >1.2, antagonism.
(§3) The NSCLC cell lines A549 and H1299 were exposed to increasing concentrations of each agent for 72 hours and growth inhibition was directly compared to vehicle-treated controls.

[5] = system: HCT116 cells
[6] = system: H1299 cells; assay: MTS growth inhibition assay, H1299; conditions: H1299, 72 hours, 100 μmol/L single agent
Method: as §2, §3

[7] = system: SW620 cells; assay: MTS growth inhibition assay, SW620
Method: as §2
HCT116 and SW620 cells were exposed to increasing concentrations of each agent for 72 hours and growth inhibition was directly compared to vehicle-treated controls.

## CC[C@@](O)(Cn1nncc1CCCCCC1CCC(=O)NC1=O)c1ccc(F)c(OCC2CC2)c1 (some centres unmarked) [PCI 10952]
[1]
  colonies formed, combination with FUdR: modest reductions in colonies formed

## CC[C@@](O)(Cn1nncc1CCCNC1CCC(=O)NC1=O)c1ccc(F)c(OCC2CC2)c1 (some centres unmarked) [PCI 10927]
[2]
  colonies formed / combined drug effect with FUdR: Substantial reductions in colonies formed

## CC[C@@](O)(Cn1nncc1CCCCC1C(=O)Nc2ncccc21)c1ccc(F)c(OCC2CC2)c1 (some centres unmarked) [PCI 10930]
[2]
  colonies formed / combined drug effect with FUdR: Substantial reductions in colonies formed

## CC[C@@](O)(Cn1nncc1CCCCNC1(C)CCC(=O)NC1=O)c1ccc(F)c(OCC2CC2)c1 (some centres unmarked) [PCI 10933]
[2]
  colonies formed / combined drug effect with FUdR: Substantial reductions in colonies formed

## CC[C@@](O)(Cn1nncc1CCCCC1Cc2cccc(OC)c2NC1=O)c1ccc(F)c(OCC2CC2)c1 (some centres unmarked) [PCI 10929]
[2]
  colonies formed / combined drug effect with FUdR: Substantial reductions in colonies formed

## CC[C@@](O)(Cn1nncc1CCCCn1ccc(=O)[nH]c1=O)c1ccc(F)c(OCC2CC2)c1 [PCI 10950, reference compound]
[2]
  colonies formed / combined drug effect with FUdR: strong synergy
[3]
  combined drug effect with fixed doses of FUdR: strong synergy

## CC[C@@](O)(Cn1nncc1CCCCc1cnc2c(c1)CCC(=O)N2)c1ccc(F)c(OCC2CC2)c1 [PCI 10928]
[2]
  colonies formed / combined drug effect with FUdR: Substantial reductions in colonies formed

## C[C@@H](NS(=O)(=O)CC/C=C/CC1SC(=O)NC1=O)c1cccc(OCC2CC2)c1 (some centres unmarked) [PCI 10214]
[4]
  decrease in growth / reduction in proliferation: ~25%
[5]; HCT116, 72 hours, up to 75 μmol/L
  single agent activity (growth inhibition vs vehicle): little to no single agent activity
[6]
  decrease in cell proliferation: ≤ 40%
[7]; SW620, 72 hours, 100 μmol/L single agent
  single agent activity / decrease in proliferation: ~30%
[7]; SW620, 72 hours, up to 75 μmol/L
  single agent activity (growth inhibition vs vehicle): neither PCI 10213 or 10214 had any single agent activity

## CC[C@@](O)(Cn1nncc1CCCCC1CCC(=O)NC1=O)c1ccc(F)c(OCC2CC2)c1 (some centres unmarked) [PCI 10951]
[2]
  colonies formed / combined drug effect with FUdR: Substantial reductions in colonies formed
[1]
  colonies formed, combination with FUdR: Substantial reductions in colonies formed

## O=c1[nH]cc(F)c(=O)[nH]1 [5-FU, 5-fluorouracil, reference compound]
[5]; HCT116, 0 to 100 μmol/L
  growth inhibition, 5-FU alone: dose-dependent increases in growth inhibition
[7]; SW620, 0 to 100 μmol/L
  growth inhibition, 5-FU alone: dose-dependent increases in growth inhibition
